Experimental data: patent publication US20210386789A1, “Enhancement of Mesenchymal Stem Cell Anti-inflammatory and Regenerative Activity Using mTOR Inhibitors” (BRAIN CANCER RESEARCH INSTITUTE, priority 2020, published 2021)

System: Bone marrow MSCs
Assay: HGF-1 production by bone marrow MSCs cultured with rapamycin (ELISA)
Type: cell-based
Details: bone marrow MSCs (ATCC), 96 well plates, indicated concentrations of rapamycin and time points, ELISA (R&D Systems), FIG. 1
Description: Bone marrow MSCs were purchased from American Type Culture Collection (hereinafter, “ATCC”) and grown in DMEM media with 10% fetal calf serum. Cells were allowed to expand to 100% confluence. The media was subsequently washed with phosphate buffered saline (PBS). Cells were plated on 96 well plates and cultured in the presence of the indicated concentrations of rapamycin for the indicated time points. Hepatocyte Growth Factor (HGF-1) expression was assessed using ELISA (R&D Systems).

## CO[C@H]1C[C@@H]2CC[C@@H](C)[C@@](O)(O2)C(=O)C(=O)N2CCCC[C@H]2C(=O)O[C@H]([C@H](C)C[C@@H]2CC[C@@H](O)[C@H](OC)C2)CC(=O)[C@H](C)/C=C(\C)[C@@H](O)[C@@H](OC)C(=O)[C@H](C)C[C@H](C)/C=C/C=C/C=C/1C [rapamycin, Rapamycin]
  Hepatocyte Growth Factor (HGF-1) expression / production: significant increase in production of HGF-1
